Laboratory results published in the supplement of paper PMC11208160.

Test: recombinant barcode read abundance after kanamycin selection (control-corrected) (log10(CPM+1)); higher = more efficient recombination; sequences stand for … in AGTGCAGAGAAAATCGGCCAGTTTTCTCTGCCTGCAGTCCGCATGCCGT…AGATTTATGCAGCGGACTGCCTTTCTCCCAAAGTGATAAACCGGACAGTATCATGGACCGGTTTTCCCGGTAATCCGTATTTGCAAGGTTGGTTTCACT; site = the 11-nt target
Method in brief: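 In a pooled screen in E. coli, targets were paired with target-binding loops of the IS621 bridge RNA. Each oligo carried a promoter, a target, a barcode and the first 104 bridge RNA bases driven by J23119, and was Gibson-cloned into a vector holding the remaining 73 bp and a T7-inducible recombinase before co-electroporation with a donor plasmid. Duplicate platings went onto chloramphenicol/ampicillin LB agar as the control or onto chloramphenicol/ampicillin/kanamycin with 0.1 mM IPTG. Recombination efficiency is the averaged, control-corrected count per million of barcodes at recombinant junctions, given as log10(CPM+1).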
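Also: IS621 recombinase and bridge RNA in Escherichia coli cells.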

| Sequence | recombinant barcode read abundance (log10) |
| --- | --- |
| CAGAGGTCTTGGGTTCTAACCTGTTGCCT (site CAGAGGTCTAG) | 1.39 |
| CAGCAAGCTTGGGTTCTAACCTGTTGCCT (site CAGCAAGCTAG) | 1.17 |
| CAGCAAGCTTGGGTTCTAACCTGTTGCCT (site CAGTACGCTAG) | 0.0513 |
| CAGCACTCTTGGGTTCTAACCTGTTGCTA (site CAGCACTCTTA) | 2.12 |
| CAGCACTCTTGGGTTCTAACCTGTTGCTA (site CAGGACTCTAA) | 0.201 |
| CAGCATACTTGGGTTCTAACCTGTTGCCT (site CAGCATACTAG) | 1.74 |
| CAGCATACTTGGGTTCTAACCTGTTGCCT (site CCGCATACTAG) | 0.159 |
| CAGCATACTTGGGTTCTAACCTGTTGCCT (site CGGCATACTAG) | 0.215 |
| CAGCATACTTGGGTTCTAACCTGTTGCCT (site CTGCATACTAG) | 0.0255 |
| CAGCCCTCTTGGGTTCTAACCTGTTGCTA (site CAGCCCTCTTA) | 2.75 |
| CAGCCCTCTTGGGTTCTAACCTGTTGCTA (site CCGCCCTCTAA) | 0.188 |
| CAGCCTTCTTGGGTTCTAACCTGTTGCTT (site CAGCCTTCTAA) | 0.718 |
| CAGCCTTCTTGGGTTCTAACCTGTTGCTT (site CATCCTCCTAA) | 0.0417 |
| CAGCGTGCTTGGGTTCTAACCTGTTGCCT (site CAGCGTGCTAG) | 0.838 |
| CAGCGTGCTTGGGTTCTAACCTGTTGCCT (site CCGCGTGCTAG) | 0.318 |
| CAGCGTGCTTGGGTTCTAACCTGTTGCCT (site CGGCGTGCTAG) | 0.216 |
| CAGCGTGCTTGGGTTCTAACCTGTTGCCT (site CTGCGTGCTAG) | 0.612 |
| CAGGAACCTTGGGTTCTAACCTGTTGCCT (site AAGGAACCTAG) | 0.15 |
| CAGGAACCTTGGGTTCTAACCTGTTGCCT (site CAGGAACCTAG) | 2.01 |
| CAGGAACCTTGGGTTCTAACCTGTTGCCT (site GAGGAACCTAG) | 0.235 |

| Sequence | recombinant barcode read abundance (log10) |
| --- | --- |
| CAGGAACCTTGGGTTCTAACCTGTTGCCT (site TAGGAACCTAG) | 0.216 |
| CAGGCCACTTGGGTTCTAACCTGTTGCCT (site CAGGCCACTAG) | 0.945 |
| CAGGCCACTTGGGTTCTAACCTGTTGCCT (site CCGGCCACTAG) | 0.0473 |
| CAGGCCACTTGGGTTCTAACCTGTTGCCT (site CGGGCCACTAG) | 1.04 |
| CAGGCCACTTGGGTTCTAACCTGTTGCCT (site CTGGCCACTAG) | 0.357 |
| CAGTACTCTTGGGTTCTAACCTGTTGCCT (site CAGTAATCTAG) | 0.122 |
| CAGTACTCTTGGGTTCTAACCTGTTGCCT (site CAGTACTCTAG) | 2.29 |
| CAGTACTCTTGGGTTCTAACCTGTTGCCT (site CAGTAGTCTAG) | 0.1 |
| CAGTACTCTTGGGTTCTAACCTGTTGCCT (site CAGTATTCTAG) | 0.0289 |
| CAGTGGCCTTGGGTTCTAACCTGTTGCCT (site CAGAGGCCTAG) | 0.0837 |
| CAGTGGCCTTGGGTTCTAACCTGTTGCCT (site CAGCGGCCTAG) | 0.124 |
| CAGTGGCCTTGGGTTCTAACCTGTTGCCT (site CAGGGGCCTAG) | 0.234 |
| CAGTGGCCTTGGGTTCTAACCTGTTGCCT (site CAGTGGCCTAG) | 0.132 |
| CAGTTCGCTTGGGTTCTAACCTGTTGCCT (site CAGTTAGCTAG) | 0.141 |
| CAGTTCGCTTGGGTTCTAACCTGTTGCCT (site CAGTTCGCTAG) | 1.6 |
| CAGTTCGCTTGGGTTCTAACCTGTTGCCT (site CAGTTGGCTAG) | 0.0461 |
| CAGTTCGCTTGGGTTCTAACCTGTTGCCT (site CAGTTTGCTAG) | 0.0585 |
| CAGTTTGCTTGGGTTCTAACCTGTTGCCT (site CAGTTAGCTAG) | 0.102 |
| CAGTTTGCTTGGGTTCTAACCTGTTGCCT (site CAGTTCGCTAG) | 0.172 |
| CAGTTTGCTTGGGTTCTAACCTGTTGCCT (site CAGTTGGCTAG) | 0 |

| Sequence | recombinant barcode read abundance (log10) |
| --- | --- |
| CAGTTTGCTTGGGTTCTAACCTGTTGCCT (site CAGTTTGCTAG) | 0.512 |
| CATAACGCTTGGGTTCTAACCTGTTGCCT (site CATAACGCTAG) | 1.18 |
| CATAACGCTTGGGTTCTAACCTGTTGCCT (site GCATCTACTTA) | 0.102 |
| CATAGAGCTTGGGTTCTAACCTGTTGCCT (site CATAGAGCTAG) | 0.648 |
| CATAGAGCTTGGGTTCTAACCTGTTGCCT (site CATAGGGCTCG) | 0.215 |
| CATAGGGCTTGGGTTCTAACCTGTTGCCG (site CATAGAGCTAG) | 0.0324 |
| CATAGGGCTTGGGTTCTAACCTGTTGCCG (site CATAGGGCTCG) | 1.03 |
| CATAGTCCTTGGGTTCTAACCTGTTGCCA (site CATAGTCCTTG) | 0.299 |
| CATAGTCCTTGGGTTCTAACCTGTTGCCA (site GTACAATCTCT) | 0.112 |
| CATCAGCCTTGGGTTCTAACCTGTTGCGT (site CATCAGCCTAC) | 1.63 |
| CATCAGCCTTGGGTTCTAACCTGTTGCGT (site TATCAGCCTAA) | 0.174 |
| CATCCATCTTGGGTTCTAACCTGTTGCAT (site CATCCATCTAT) | 0.883 |
| CATCCATCTTGGGTTCTAACCTGTTGCAT (site TCGAGGCCTTA) | 0.328 |
| CATCCTCCTTGGGTTCTAACCTGTTGCTT (site CAGCCTTCTAA) | 0.103 |
| CATCCTCCTTGGGTTCTAACCTGTTGCTT (site CATCCTCCTAA) | 0.0487 |
| CATCGATCTTGGGTTCTAACCTGTTGCGT (site CATCGATCTAC) | 1.6 |
| CATCGATCTTGGGTTCTAACCTGTTGCGT (site CTTTGATCTAC) | 0.0816 |
| CATCGGACTTGGGTTCTAACCTGTTGCGA (site AGGGCACCTCT) | 0.112 |
| CATCGGACTTGGGTTCTAACCTGTTGCGA (site CATCGGACTTC) | 1.35 |
